The values that follow are results of earlier work, collected in patent publication US20090274673A1, “COMPOSITION FOR TOPICAL TREATMENT OF ACNE” (priority 2008, published 2009).

One series deals with Proteus vulgaris. As to conditions: agar plate diffusion.
The subject of series [1] is hyper-permeable strains of Escherichia coli SC10909 and BAS847. The conditions noted are these: agar plate diffusion; hyper-permeable E. coli SC10909 and BAS847.
Series [2] concerns Staphylococcus epidermidis. The conditions noted are these: against Staphylococcus epidermidis.
The test system of the next series is Bacillus thuringiensis. The conditions noted are these: agar plate diffusion.
The subject of the next series is Staphylococcus aureus. As to conditions: agar plate diffusion.
In another series the test system is Saccharomyces cerevisiae. The conditions noted are these: against Saccharomyces cerevisiae.
Another series relates to protein synthesis. As to conditions: prokaryotes versus eukaryotes.
The subject of the next series is Candida albicans. As to conditions: against Candida albicans (a yeast-like fungus).
For another series, the system named is HIV. The conditions noted are these: virus incubated with zinc acetate.
Series [3] concerns species of Fusarium, Gerlacia, Penicillium, and Aspergillus.

In the case of `C/C(=C/C=C/C=C/C(C)C(=O)O)NC(=O)CC(O)\C(C)=C/C=C\C=C(C)\C=C\C=C/C=C/CNC(=O)C(O)CC(C)C` (centres unmarked) [bacillaene], the inhibitory effect result is on record as “moderately potent” with Proteus vulgaris; “potent” in series [1]; “ineffective” in series [2]; “moderately potent” in the series with Bacillus thuringiensis; “moderately potent” in the series on Staphylococcus aureus; “ineffective” in the series with Saccharomyces cerevisiae. Also, in the series on Candida albicans, the inhibitory effect result is reported as “ineffective”. In the series with protein synthesis, the “selectivity of protein synthesis inhibition” value was “inhibiting protein synthesis only in prokaryotes and not in eukaryotes”. The growth inhibition entry with Streptomyces avermitilis was “inhibit the growth”.

Turning to `CC(=O)[O-].CC(=O)[O-].[Zn+2]` [zinc acetate], in the series on HIV, the HIV infectivity result is “reduced”.

For Iturin A, the growth inhibition entry in series [3] is “inhibits the growth”.
